Measurements taken from patent US8633324B2, “Denibulin di-hydrochloride” (Medicinova, Inc., priority 2011, dated 2014).
≈ marks a conversion by molar mass, not a printed value. Read-outs that look alike come from different tables or passages of the source. One block for each compound: values may come before it.

Experiments:
Assay type in all cases: physicochemical
[1] = Aqueous solubility, 24 hours equilibration in water at 25° C., HPLC, pH and XRPD of residue; details: for XRPD of solid residue: residue after 24 hours equilibration in water at 25° C.
Method: Briefly, quantitative high performance liquid chromatography (HPLC) was used to determine the aqueous solubility. X-ray powder diffraction spectrometry was also used to characterize the thermodynamic solubility of the mono-hydrochloride and di-hydrochloride salts of MN-029. After a 24 hours equilibration of each salt form in water at 25° C., the residual solid material was separated from the aqueous solution and the pH of the aqueous sample was measured. The XRPD spectrum of the solid residue obtained from the MN-029 di-hydrochloride vial indicated the solid material to be the mono-hydrochloride salt of MN-029. […] Table 4 illustrates the data from aqueous solubility studies of the mono-hydrochloride and di-hydrochloride salts of MN-029.
The suspension was equilibrated at 25° C. for 24 hours then pH was measured. The suspension was filtered and the filtrate was diluted by a factor of 101. Quantization by HPLC with a reference to a standard solution. Different volumes of the standard, diluted, and undiluted solution were injected and solubility was calculated by integration of the peak found at the same time as the principle peak in the standard solution.

[2] = Log P, Log Pion, Log D by potentiometric titration (Sirius GlpKa, octanol:water); details: octanol:ionic-strength adjusted water
Source text: Most drugs have an ideal log P value and any deviation from this idealized value results in reduced absorption, slow transport of drug to the site of action and consequently, a decrease in biological activity. Table 8, illustrates the predicted and measured values for partition coefficients of MN-029 di-hydrochloride. The data was collected by potentiometric titration using a Sirius GlpKa instrument using three ratios of octanol:ionic-strength adjusted water to generate Log P, Log Pion and Log D values and the raw data was analyzed using Refinement Pro Software V.1.0. The predicted value of Log P was obtained using ACD V. software and Syracuse KOWWIN V.1.67 softwares.

[3] = Gravimetric Vapor Sorption (GVS) hygroscopicity; details: for Weight change: GVS
Source text: Moreover, neither the mono-hydrochloride salt or the di-hydrochloride salt of MN-029 show any significant change in phase as measured by XRPD analysis of samples subjected to GVS analysis (see FIG. 6).

[4] = Evaluation of other salt forms as active pharmaceutical ingredient; details: reasons including instability, hygroscopicity and deliquescence even at moderate humidity
Method: The advantageous nature of the physicochemical properties of the di-hydrochloride salt of MN-029 seems to be borne out, not just in comparison with the mono-hydrochloride salt but also with three other salts that were prepared to determine each salt's potential to be an active pharmaceutical ingredient. These other salt forms were the mesylate, malonate and sulfate salts of denibulin. Each was deemed unsuitable for use in pharmaceutical formulations because of one or more reasons, including instability, hygroscopicity and deliquescence even at moderate humidity.

[5] = Solubility as a function of pH in buffers without and with 15% HPBCD; details: for solubility at 5 days: thermodynamic from solid, read-out: MN-029 Solubility
Method: Buffers were prepared to cover a pH range of 2 to 7. Approximately 5 to 10 milligrams of drug was weighed into an HPLC vial to which 1.00 mL of the appropriate buffer was added. The solutions were vortexed briefly and were then shaken for five days on an orbital shaker. The prolonged shaking was carried out because slow equilibration had been observed during the initial formulation studies with different salt forms of MN-029.
Buffers with 15% HPBCD were prepared from the previous buffers. One and a half grams of HPBCD was weighed into each of several 10 mL volumetric flasks. HPBCD was dissolved in and diluted to volume with the appropriate buffer. 15 to 20 milligrams of MN-029 di-hydrochloride was weighed out into an tared HPLC vial. To the di-hydrochloride salt was added 1.00 mL of each buffer and the solution was vortexed briefly to dissolve the salt. The solutions were placed on an orbital shaker for five days. Solubility results are shown in Table 10, and the pH solubility profile for the drug in the absence of HPBCD is shown in FIG. 8.

[6] = pKa, predicted (ACD) versus measured (Sirius GlpKa)
Source text: MN-029 has a primary, secondary and tertiary amino group. The pKa's of these amino groups, therefore, should play a role in aqueous solubility, stability and pharmacokinetics. Accordingly, the present inventor compared the predicted pKa's of the alanyl and ring nitrogen atoms to their measured pKa values and unexpectedly found a significant difference between the measured and predicted pKa values for the benzimidazole nitrogen atoms. Thus, for the acidic >N—H group of imidazole, there is approximately a 6-fold difference between the predicted and measured pKa values as shown in Scheme 3. For the more basic ring nitrogen (—N═), however, the difference between observe red and predicted pKa values is 30-fold. That is, the measured value of basicity for the unprotonated ring nitrogen is much lower than the predicted value.
Predicted pKa values were calculated using ACD pKa prediction software v. 9. Actual pKa values were collected on a Sirius GlpKa instrument with a D-PAS attachment. Measurements were made at 25° C. in aqueous solution by UV and in methanol water mixtures by potentiometry. The ionic-strength of the titration media was adjusted with 0.15 M aqueous KCl. The values found in methanol water mixtures were corrected to 0% co-solvent via a Yashuda-Shedlovsky extrapolation. The data were refined using Refinement Pro software v. 1.0. No difference in pKa between the tautomers of MN-029 di-hydrochloride were detected experimentally or theoretically.

[7] = water, 25° C., equilibration for 24 hours

XRPD of solid residue ([1]; listed as A063866): No significant difference
XRPD of solid residue ([1]; listed as MN-029*HCl): No significant
Concentration of filtrate [1, 7]: 0.63 mg/ml of free base
pH of saturated solution [1, 7]: 2.37
Measured LogP [2]: 2.64
Measured LogPion(cation) [2]: 0.93
Measured LogD7.4 ([2]; pH 7.4): 2.10
Weight change ([3]; 0% RH to 40% RH): +1.04 % w/w
Weight change ([3]; 40% RH to 90% RH, listed as A063866): Reversible uptake of +2.12% w/w
Weight change ([3]; 40% RH to 90% RH, listed as MN029*HCl): +2.12 % w/w
Weight change ([3]; 90% RH to 0% RH): −3.39 % w/w
XRPD of residue after GVS ([3]; sample subjected to GVS): No significant difference
Compound: COC(=O)Nc1nc2cc(Sc3ccc(NC(=O)[C@H](C)N)cc3)ccc2[nH]1.Cl [MN-029 mono-hydrochloride, reference compound]

suitability for use in pharmaceutical formulations [4]: unsuitable
Compound: O=S(=O)(O)O [sulfate]

suitability for use in pharmaceutical formulations [4]: unsuitable
Compound: malonate

MN-029 Solubility ([5]; Without HPBCD, buffer pH 2.0, final pH 2.10, five days shaking): 6160 µg/mL
solubility at 5 days ([5]; aqueous buffer with 15% HPBCD, pH 2, aqueous with cosolvent or surfactant or cyclodextrin, With 15% HPBCD, buffer pH 2.0, final pH 2.03): > 20900 µg/mL
solubility at 5 days ([5]; aqueous buffer with 15% HPBCD, pH 3, aqueous with cosolvent or surfactant or cyclodextrin, With 15% HPBCD, buffer pH 3.0, final pH 3.11): > 24400 µg/mL
solubility at 5 days ([5]; aqueous buffer with 15% HPBCD, pH 4, aqueous with cosolvent or surfactant or cyclodextrin, With 15% HPBCD, buffer pH 4.0, final pH 3.98): > 21500 µg/mL
solubility at 5 days ([5]; aqueous buffer with 15% HPBCD, pH 5, aqueous with cosolvent or surfactant or cyclodextrin, With 15% HPBCD, buffer pH 5.0, final pH 5.24): > 23000 µg/mL
solubility at 5 days ([5]; aqueous buffer with 15% HPBCD, pH 6, aqueous with cosolvent or surfactant or cyclodextrin, With 15% HPBCD, buffer pH 6.0, final pH 6.27): > 24300 µg/mL
solubility at 5 days ([5]; aqueous buffer with 15% HPBCD, pH 7, aqueous with cosolvent or surfactant or cyclodextrin, With 15% HPBCD, buffer pH 7.0, final pH 6.90): > 22700 µg/mL
solubility at 5 days ([5]; aqueous buffer, pH 3, aqueous buffer, Without HPBCD, buffer pH 3.0, final pH 3.35): 290 µg/mL (≈ 752 µM)
solubility at 5 days ([5]; aqueous buffer, pH 4, aqueous buffer, Without HPBCD, buffer pH 4.0, final pH 3.92): 560 µg/mL (≈ 1450 µM)
solubility at 5 days ([5]; aqueous buffer, pH 5, aqueous buffer, Without HPBCD, buffer pH 5.0, final pH 4.93): 150 µg/mL (≈ 389 µM)
solubility at 5 days ([5]; aqueous buffer, pH 6, aqueous buffer, Without HPBCD, buffer pH 6.0, final pH 6.24): 130 µg/mL (≈ 337 µM)
solubility at 5 days ([5]; aqueous buffer, pH 7, aqueous buffer, Without HPBCD, buffer pH 7.0, final pH 6.96): 26 µg/mL (≈ 67.5 µM)
difference between predicted and measured pKa values ([6]; acidic >N—H group of imidazole): ~6 fold
difference between predicted and measured pKa values ([6]; alanyl amino group): no significant difference
difference between observed and predicted pKa values ([6]; more basic ring nitrogen (—N═)): 30 fold
Compound: COC(=O)Nc1nc2ccc(Sc3ccc(NC(=O)[C@H](C)N)cc3)cc2[nH]1 [MN-029, carbamic acid N-[6-[[4-[[(2S)-2-amino-1-oxopropyl]amino]phenyl]thio]-1H-benzimidazol-2-yl]-methyl ester]
